The source of these data is ChEMBL document CHEMBL2169877, “Antagonists of 5-HT₆ receptors. Substituted 3-(phenylsulfonyl)pyrazolo[1,5-a]pyrido[3,4-e]pyrimidines and 3-(phenylsulfonyl)pyrazolo[1,5-a]pyrido[4,3-d]pyrimidines-Synthesis and 'structure-activity' relationship” (Bioorg Med Chem Lett, 2012).

Data set [1] has as its target Muscarinic acetylcholine receptor M2 (Homo sapiens) (UniProt P08172). Description: Binding affinity to M2 receptor at 1 uM by radioligand displacement assay. (In general: Loss of bound radioactivity is the signal in a displacement assay; it reports binding, not function.)
A short description of data set [2]: Binding affinity to PDE1 at 1 uM by radioligand displacement assay.
In data set [3] the target is Acetylcholinesterase (Homo sapiens) (UniProt P22303). Description: Binding affinity to AChE at 1 uM by radioligand displacement assay.
Chain of Acetylcholinesterase (Homo sapiens) (P22303 whole entry): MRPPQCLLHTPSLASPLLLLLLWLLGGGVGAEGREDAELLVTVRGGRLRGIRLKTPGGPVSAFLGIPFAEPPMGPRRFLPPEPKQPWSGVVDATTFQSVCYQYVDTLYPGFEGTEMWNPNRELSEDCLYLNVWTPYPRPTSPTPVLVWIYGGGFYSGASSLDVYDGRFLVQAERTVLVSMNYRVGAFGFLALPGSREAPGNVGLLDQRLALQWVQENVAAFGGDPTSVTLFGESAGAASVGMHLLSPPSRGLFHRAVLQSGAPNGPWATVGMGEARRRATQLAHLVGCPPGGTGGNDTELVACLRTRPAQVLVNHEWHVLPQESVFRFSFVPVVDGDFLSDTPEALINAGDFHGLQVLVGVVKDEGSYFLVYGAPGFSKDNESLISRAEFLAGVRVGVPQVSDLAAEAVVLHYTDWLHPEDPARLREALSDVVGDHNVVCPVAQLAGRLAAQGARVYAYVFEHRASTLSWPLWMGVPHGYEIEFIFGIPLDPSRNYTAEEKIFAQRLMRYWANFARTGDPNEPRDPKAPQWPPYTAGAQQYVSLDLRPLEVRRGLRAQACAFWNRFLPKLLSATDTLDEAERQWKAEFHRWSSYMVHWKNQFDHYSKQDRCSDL
Data set [4] addresses RAC-alpha serine/threonine-protein kinase (Homo sapiens) (UniProt P31749). Description: Binding affinity to AKT1 at 1 uM by radioligand displacement assay.
Data set [5] can be described thus: Binding affinity to sodium channel site 2 at 1 uM by radioligand displacement assay.
The nature of data set [6]: Binding affinity to GABA transporter at 1 uM by radioligand displacement assay.
Data set [7] deals with Amine oxidase [flavin-containing] A (Homo sapiens, UniProt P21397). Description: Binding affinity to MAO-A at 1 uM by radioligand displacement assay.
Data set [8] deals with Histamine H1 receptor (Homo sapiens) (UniProt P35367). Description: Binding affinity to histamine receptor H1 at 1 uM by radioligand displacement assay.
Chain of Histamine H1 receptor (Homo sapiens) (P35367 whole entry): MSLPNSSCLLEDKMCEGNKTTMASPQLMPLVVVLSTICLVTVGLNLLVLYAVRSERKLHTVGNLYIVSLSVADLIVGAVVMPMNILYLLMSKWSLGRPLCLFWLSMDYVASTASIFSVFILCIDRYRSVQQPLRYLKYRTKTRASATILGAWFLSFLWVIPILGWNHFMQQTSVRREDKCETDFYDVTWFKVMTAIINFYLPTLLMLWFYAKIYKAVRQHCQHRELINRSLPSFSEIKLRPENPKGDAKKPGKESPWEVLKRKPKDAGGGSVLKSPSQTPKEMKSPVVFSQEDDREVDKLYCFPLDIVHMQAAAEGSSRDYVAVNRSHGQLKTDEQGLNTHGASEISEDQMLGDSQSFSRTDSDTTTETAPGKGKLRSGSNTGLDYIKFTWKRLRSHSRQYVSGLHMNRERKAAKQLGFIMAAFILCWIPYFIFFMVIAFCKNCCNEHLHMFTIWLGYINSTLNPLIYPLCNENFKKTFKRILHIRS
For data set [9], the target named is 5-hydroxytryptamine receptor 5A (Homo sapiens) (UniProt P47898). Kind of data set: Binding affinity to 5HT5 receptor at 1 uM by radioligand displacement assay.
Chain of 5-hydroxytryptamine receptor 5A (Homo sapiens) (P47898 whole entry): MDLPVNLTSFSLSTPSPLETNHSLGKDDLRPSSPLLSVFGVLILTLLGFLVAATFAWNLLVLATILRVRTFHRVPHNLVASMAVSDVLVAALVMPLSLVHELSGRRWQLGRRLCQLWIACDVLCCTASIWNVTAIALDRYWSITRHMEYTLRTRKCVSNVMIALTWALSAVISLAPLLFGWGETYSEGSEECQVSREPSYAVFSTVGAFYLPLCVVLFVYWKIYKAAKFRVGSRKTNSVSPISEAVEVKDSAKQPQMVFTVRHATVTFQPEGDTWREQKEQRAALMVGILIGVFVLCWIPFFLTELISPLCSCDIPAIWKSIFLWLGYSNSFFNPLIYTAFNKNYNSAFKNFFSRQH
The nature of data set [10]: Binding affinity to central-type GABA(A) receptor flunitrazepam binding site at 1 uM by radioligand displacement assay.
Data set [11] deals with Cyclin-dependent kinase 2/cyclin A (Homo sapiens) (UniProt P24941+P20248+P78396). Kind of data set: Binding affinity to CDK2/cyclin A at 1 uM by radioligand displacement assay. Format: protein-complex assay.
Data set [12] can be described thus: Binding affinity to GABA(A) receptor RO-15-1788 binding site at 1 uM by radioligand displacement assay.
Data set [13] concerns the target 5-hydroxytryptamine receptor 6 (Homo sapiens, UniProt P50406). Kind of data set: Antagonist activity at human recombinant 5HT6 receptor expressed in […] cells assessed as inhibition of serotonin-induced cAMP accumulation after 2 hrs. Format: functional, cell-based, HEK293. For orientation: Changes in cAMP serve as a functional read-out for many G protein-coupled receptors.

Data set [14] deals with Beta-2 adrenergic receptor (Homo sapiens) (UniProt P07550). Kind of data set: Binding affinity to beta2 adrenergic receptor at 1 uM by radioligand displacement assay.
In data set [15] the target is Histamine H3 receptor (Homo sapiens) (UniProt Q9Y5N1). Description: Binding affinity to histamine receptor H3 at 1 uM by radioligand displacement assay.
Chain of Histamine H3 receptor (Homo sapiens) (Q9Y5N1 whole entry): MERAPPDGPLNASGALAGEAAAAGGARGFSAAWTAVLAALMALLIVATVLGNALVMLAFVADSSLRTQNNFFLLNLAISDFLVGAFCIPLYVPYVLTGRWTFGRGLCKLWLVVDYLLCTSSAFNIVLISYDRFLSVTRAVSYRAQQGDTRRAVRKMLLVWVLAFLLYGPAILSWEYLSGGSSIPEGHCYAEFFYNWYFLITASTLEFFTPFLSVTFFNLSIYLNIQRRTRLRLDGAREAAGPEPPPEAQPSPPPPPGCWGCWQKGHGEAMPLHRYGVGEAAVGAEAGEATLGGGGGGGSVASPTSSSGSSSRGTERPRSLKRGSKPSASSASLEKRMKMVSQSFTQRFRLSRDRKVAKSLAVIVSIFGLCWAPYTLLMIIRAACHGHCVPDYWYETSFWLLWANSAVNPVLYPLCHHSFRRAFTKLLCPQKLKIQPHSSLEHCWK
The target of data set [16] is Nitric oxide synthase, inducible (Homo sapiens) (UniProt P35228). Kind of data set: Binding affinity to iNOS at 1 uM by radioligand displacement assay.
Chain of Nitric oxide synthase, inducible (Homo sapiens) (P35228 whole entry): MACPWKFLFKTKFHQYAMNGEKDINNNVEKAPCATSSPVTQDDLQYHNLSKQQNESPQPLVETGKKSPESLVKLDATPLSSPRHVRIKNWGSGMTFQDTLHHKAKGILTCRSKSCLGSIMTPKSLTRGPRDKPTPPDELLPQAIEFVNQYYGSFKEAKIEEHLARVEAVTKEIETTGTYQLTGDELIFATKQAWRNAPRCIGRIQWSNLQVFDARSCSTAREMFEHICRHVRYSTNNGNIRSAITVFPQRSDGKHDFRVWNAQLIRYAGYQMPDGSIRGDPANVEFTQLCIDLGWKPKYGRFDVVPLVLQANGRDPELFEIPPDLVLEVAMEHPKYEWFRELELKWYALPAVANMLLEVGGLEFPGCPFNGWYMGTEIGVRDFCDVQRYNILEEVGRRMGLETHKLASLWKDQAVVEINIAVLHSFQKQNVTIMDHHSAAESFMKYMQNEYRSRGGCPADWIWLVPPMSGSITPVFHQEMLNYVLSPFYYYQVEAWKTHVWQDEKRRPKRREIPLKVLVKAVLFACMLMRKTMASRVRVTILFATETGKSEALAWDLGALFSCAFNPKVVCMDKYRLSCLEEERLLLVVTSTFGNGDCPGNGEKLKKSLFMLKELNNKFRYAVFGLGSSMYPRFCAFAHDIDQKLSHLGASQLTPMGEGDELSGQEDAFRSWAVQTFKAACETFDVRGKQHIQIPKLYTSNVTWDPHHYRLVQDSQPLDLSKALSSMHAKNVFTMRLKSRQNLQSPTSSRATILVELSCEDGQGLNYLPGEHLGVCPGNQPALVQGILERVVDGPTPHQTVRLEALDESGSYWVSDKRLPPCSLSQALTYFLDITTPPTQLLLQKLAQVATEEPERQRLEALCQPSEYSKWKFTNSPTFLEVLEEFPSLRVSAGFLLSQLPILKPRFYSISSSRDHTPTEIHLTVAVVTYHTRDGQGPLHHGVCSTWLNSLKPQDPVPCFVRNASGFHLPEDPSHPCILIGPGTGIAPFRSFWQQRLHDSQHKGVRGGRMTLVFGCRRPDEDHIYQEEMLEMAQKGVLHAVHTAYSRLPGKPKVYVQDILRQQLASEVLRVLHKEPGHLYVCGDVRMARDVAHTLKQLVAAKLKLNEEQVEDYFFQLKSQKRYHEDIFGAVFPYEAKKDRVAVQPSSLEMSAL
Data set [17] can be described thus: Binding affinity to L-type calcium channel benzothiazepine binding site at 1 uM by radioligand displacement assay.
Data set [18] has as its target Alpha-1B adrenergic receptor (Homo sapiens) (UniProt P35368). Kind of data set: Binding affinity to alpha1B adrenergic receptor at 1 uM by radioligand displacement assay.
In data set [19] the target is Muscarinic acetylcholine receptor M1 (Homo sapiens) (UniProt P11229). Kind of data set: Binding affinity to M1 receptor at 1 uM by radioligand displacement assay.
Data set [20] deals with Alpha-2A adrenergic receptor (Homo sapiens) (UniProt P08913). Kind of data set: Binding affinity to alpha2A adrenergic receptor at 1 uM by radioligand displacement assay.
Chain of Alpha-2A adrenergic receptor (Homo sapiens) (P08913 whole entry): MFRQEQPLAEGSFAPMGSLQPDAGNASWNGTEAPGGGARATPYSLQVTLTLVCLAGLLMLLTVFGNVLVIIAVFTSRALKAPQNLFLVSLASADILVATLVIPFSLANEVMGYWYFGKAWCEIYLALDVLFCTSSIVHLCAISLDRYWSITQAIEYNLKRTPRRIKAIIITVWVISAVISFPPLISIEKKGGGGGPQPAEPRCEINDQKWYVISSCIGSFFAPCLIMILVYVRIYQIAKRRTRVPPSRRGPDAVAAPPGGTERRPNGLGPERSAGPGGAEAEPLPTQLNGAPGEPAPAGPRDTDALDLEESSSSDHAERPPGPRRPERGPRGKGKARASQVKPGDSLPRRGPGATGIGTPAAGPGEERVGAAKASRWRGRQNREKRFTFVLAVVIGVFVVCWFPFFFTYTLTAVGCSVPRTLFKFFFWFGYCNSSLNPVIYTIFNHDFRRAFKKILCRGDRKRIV
Data set [21] is described as follows: Binding affinity to L-type calcium channel phenylalkylamine binding site at 1 uM by radioligand displacement assay.
For data set [22], the target named is Cyclin-dependent kinase 5/CDK5 activator 1 (Homo sapiens) (UniProt Q00535+Q15078). Description: Binding affinity to cdk5/p35 at 1 uM by radioligand displacement assay. It is filed as protein-complex assay.
Chain of Cyclin-dependent kinase 5/CDK5 activator 1 (Homo sapiens) (Q00535 whole entry): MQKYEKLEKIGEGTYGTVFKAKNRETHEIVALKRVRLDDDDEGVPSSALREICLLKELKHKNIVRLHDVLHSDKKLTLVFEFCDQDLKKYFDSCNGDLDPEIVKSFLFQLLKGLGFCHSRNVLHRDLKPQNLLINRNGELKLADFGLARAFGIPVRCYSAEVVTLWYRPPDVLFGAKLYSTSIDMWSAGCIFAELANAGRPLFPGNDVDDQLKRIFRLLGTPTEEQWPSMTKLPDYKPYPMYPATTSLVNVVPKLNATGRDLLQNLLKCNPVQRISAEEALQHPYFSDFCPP
Chain of Cyclin-dependent kinase 5/CDK5 activator 1 (Homo sapiens) (Q15078 99-307 partner limits assumed): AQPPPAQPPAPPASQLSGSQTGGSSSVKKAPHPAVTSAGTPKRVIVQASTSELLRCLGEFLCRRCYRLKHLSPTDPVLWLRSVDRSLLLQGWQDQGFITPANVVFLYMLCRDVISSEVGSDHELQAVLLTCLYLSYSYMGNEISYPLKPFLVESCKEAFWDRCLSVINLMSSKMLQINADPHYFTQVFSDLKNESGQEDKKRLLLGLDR
The target in data set [23] is Histamine H2 receptor (Homo sapiens) (UniProt P25021). Description: Binding affinity to histamine receptor H2 at 1 uM by radioligand displacement assay.

For orientation: Ki means a measure of affinity in units of concentration, obtained from inhibition or displacement.

Structures are written as SMILES. Calls of active or inactive are those of the source. The rule behind the calls is not given here.

Chain of 5-hydroxytryptamine receptor 6 (P50406 whole entry): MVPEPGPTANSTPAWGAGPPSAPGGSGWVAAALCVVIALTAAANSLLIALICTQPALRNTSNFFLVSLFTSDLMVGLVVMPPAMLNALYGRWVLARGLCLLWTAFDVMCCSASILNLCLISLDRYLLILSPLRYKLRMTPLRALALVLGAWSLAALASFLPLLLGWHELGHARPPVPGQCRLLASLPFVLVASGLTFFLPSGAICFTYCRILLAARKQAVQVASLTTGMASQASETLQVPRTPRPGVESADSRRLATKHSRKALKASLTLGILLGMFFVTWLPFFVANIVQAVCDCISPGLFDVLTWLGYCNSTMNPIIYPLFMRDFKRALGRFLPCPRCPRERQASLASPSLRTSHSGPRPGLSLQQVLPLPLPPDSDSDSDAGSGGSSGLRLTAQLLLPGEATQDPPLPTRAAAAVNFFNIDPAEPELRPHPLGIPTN
Chain of Alpha-1B adrenergic receptor (Homo sapiens) (P35368 whole entry): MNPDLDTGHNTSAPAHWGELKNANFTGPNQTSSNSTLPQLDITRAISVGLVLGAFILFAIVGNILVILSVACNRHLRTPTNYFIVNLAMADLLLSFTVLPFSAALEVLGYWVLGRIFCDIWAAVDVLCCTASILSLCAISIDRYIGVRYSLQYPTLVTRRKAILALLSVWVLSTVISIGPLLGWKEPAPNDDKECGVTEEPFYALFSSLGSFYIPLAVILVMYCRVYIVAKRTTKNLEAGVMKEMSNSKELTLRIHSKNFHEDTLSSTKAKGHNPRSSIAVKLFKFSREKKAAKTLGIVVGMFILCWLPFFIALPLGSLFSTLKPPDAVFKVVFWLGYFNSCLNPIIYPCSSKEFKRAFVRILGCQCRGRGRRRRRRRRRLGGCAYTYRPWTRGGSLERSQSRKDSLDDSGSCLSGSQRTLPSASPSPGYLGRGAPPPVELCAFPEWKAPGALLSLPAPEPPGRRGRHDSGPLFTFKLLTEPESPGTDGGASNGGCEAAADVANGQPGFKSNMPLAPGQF

On to `CNc1nn2cc3c(nc2c1S(=O)(=O)c1ccccc1)CCN(C)C3`, for which the outcome in [1], in [2], in [3], in [4], in data set [5] and in [6] was inactive. Further, the result in [8], in data set [9], in [10], in data set [11], in [12] and in data set [14] was inactive. In addition, the result in [15], in data set [16], in data set [17], in data set [18], in data set [19] and in data set [20] was inactive. In addition, the result in data set [21], in data set [22] and in data set [23] was inactive. Further, the Activity entry in data set [7] is “Not Active”. In addition, the Ki in data set [13] was found to be 14.3 nM.
